Experimental data taken from publication PMC9822402, “Investigation on Hydrazonobenzenesulfonamides as Human Carbonic Anhydrase I, II, IX and XII Inhibitors” (Molecules, 2022).

Tests used:
hCA I = target: T1, hCA I (Homo sapiens, UniProt P00915); assay: stopped-flow CO2 hydrase assay; type: biochemical; settings: read-out: KI (nM) ^1 / CAI
T1 construct: gene CA1; recombinant, obtained in-house

hCA II = target: T2, hCA II (Homo sapiens, UniProt P00918); assay: stopped-flow CO2 hydrase assay; type: biochemical; settings: read-out: KI (nM) ^1 / CAII
T2 construct: gene CA2; recombinant, obtained in-house

T1 sequence (P00915 2-261): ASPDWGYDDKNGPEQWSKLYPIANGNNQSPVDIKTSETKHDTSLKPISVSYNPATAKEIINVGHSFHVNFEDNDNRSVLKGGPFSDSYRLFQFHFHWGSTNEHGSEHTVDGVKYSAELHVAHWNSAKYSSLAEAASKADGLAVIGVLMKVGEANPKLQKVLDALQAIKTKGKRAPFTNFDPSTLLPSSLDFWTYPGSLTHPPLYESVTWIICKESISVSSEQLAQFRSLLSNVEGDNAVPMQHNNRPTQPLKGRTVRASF

Structure (SMILES)	Ki (hCA I) [nM]	Ki (hCA II) [nM]
COc1ccc(/C=N/NC(=O)C2CCN(C(=O)c3ccc(S(N)(=O)=O)cc3)CC2)c(Br)c1OC [compound 15, (E)-4-(4-(2-(2-bromo-3,4-dimethoxybenzylidene)hydrazinecarbonyl)piperidine-1-carbonyl)benzenesulfonamide]	1540	65.5
NS(=O)(=O)c1ccc(C(=O)N2CCC(C(=O)N/N=C/c3cccc([N+](=O)[O-])c3)CC2)cc1 [compound 21, (E)-4-(4-(2-(3-nitrobenzylidene)hydrazinecarbonyl)piperidine-1-carbonyl)benzenesulfonamide]	1820	46.2
COc1ccc(OC)c(/C=N/NC(=O)C2CCN(C(=O)c3ccc(S(N)(=O)=O)cc3)CC2)c1 [compound 12, (E)-4-(4-(2-(2,5-dimethoxybenzylidene)hydrazinecarbonyl)piperidine-1-carbonyl)benzenesulfonamide]	24.3	1.75
COc1ccccc1/C=N/NC(=O)C1CCN(C(=O)c2ccc(S(N)(=O)=O)cc2)CC1 [compound 7, (E)-4-(4-(2-(2-methoxybenzylidene)hydrazinecarbonyl)piperidine-1-carbonyl)benzenesulfonamide]	45.5	2.94
COc1c(/C=N/NC(=O)C2CCN(C(=O)c3ccc(S(N)(=O)=O)cc3)CC2)ccc2ccccc12 [compound 17, (E)-4-(4-(2-((1-methoxynaphthalen-2-yl)methylene)hydrazinecarbonyl)piperidine-1-carbonyl)benzenesulfonamide]	334	25.2
NS(=O)(=O)c1ccc(C(=O)N2CCC(C(=O)N/N=C/c3ccc(C(F)(F)F)cc3)CC2)cc1 [compound 18, (E)-4-(4-(2-(4-(trifluoromethyl)benzylidene)hydrazinecarbonyl)piperidine-1-carbonyl)benzenesulfonamide]	1750	37.4
NS(=O)(=O)c1ccc(C(=O)N2CCC(C(=O)N/N=C/c3ccc(Cl)cc3Cl)CC2)cc1 [compound 25, (E)-4-(4-(2-(2,4-dichlorobenzylidene)hydrazinecarbonyl)piperidine-1-carbonyl)benzenesulfonamide]	336	6.65
NS(=O)(=O)c1ccc(C(=O)N2CCC(C(=O)N/N=C/c3c(Cl)cccc3Cl)CC2)cc1 [compound 27, (E)-4-(4-(2-(2,6-dichlorobenzylidene)hydrazinecarbonyl)piperidine-1-carbonyl)benzenesulfonamide]	24.6	3.57
NS(=O)(=O)c1ccc(C(=O)N2CCC(C(=O)N/N=C/c3ccc([N+](=O)[O-])cc3)CC2)cc1 [compound 22, (E)-4-(4-(2-(4-nitrobenzylidene)hydrazinecarbonyl)piperidine-1-carbonyl)benzenesulfonamide]	384	4.92
NS(=O)(=O)c1ccc(C(=O)N2CCC(C(=O)N/N=C/c3cc(Cl)ccc3Cl)CC2)cc1 [compound 26, (E)-4-(4-(2-(2,5-dichlorobenzylidene)hydrazinecarbonyl)piperidine-1-carbonyl)benzenesulfonamide]	800	3.64
COc1ccc(/C=N/NC(=O)C2CCN(C(=O)c3ccc(S(N)(=O)=O)cc3)CC2)cc1OC [compound 11, (E)-4-(4-(2-(3,4-dimethoxybenzylidene)hydrazinecarbonyl)piperidine-1-carbonyl)benzenesulfonamide]	344	55.1
COc1ccc(/C=N/NC(=O)C2CCN(C(=O)c3ccc(S(N)(=O)=O)cc3)CC2)cc1 [compound 9, (E)-4-(4-(2-(4-methoxybenzylidene)hydrazinecarbonyl)piperidine-1-carbonyl)benzenesulfonamide]	389	4.48
NS(=O)(=O)c1ccc(C(=O)N2CCC(C(=O)N/N=C/c3cccc(Cl)c3)CC2)cc1 [compound 24, (E)-4-(4-(2-(3-chlorobenzylidene)hydrazinecarbonyl)piperidine-1-carbonyl)benzenesulfonamide]	398	55.4
NS(=O)(=O)c1ccc(C(=O)N2CCC(C(=O)N/N=C/c3cccc(F)c3)CC2)cc1 [compound 19, (E)-4-(4-(2-(3-fluorobenzylidene)hydrazinecarbonyl)piperidine-1-carbonyl)benzenesulfonamide]	392	92.4
NS(=O)(=O)c1ccc(C(=O)N2CCC(C(=O)N/N=C/c3ccccc3)CC2)cc1 [compound 5, (E)-4-(4-(2-benzylidenehydrazinecarbonyl)piperidine-1-carbonyl)benzenesulfonamide]	18.5	4.41
Cc1ccc(/C=N/NC(=O)C2CCN(C(=O)c3ccc(S(N)(=O)=O)cc3)CC2)cc1 [compound 6, (E)-4-(4-(2-(4-methylbenzylidene)hydrazinecarbonyl)piperidine-1-carbonyl)benzenesulfonamide]	3240	5.62
NS(=O)(=O)c1ccc(C(=O)N2CCC(C(=O)N/N=C/c3ccc4ccccc4c3)CC2)cc1 [compound 16, (E)-4-(4-(2-((naphthalen-2-yl)methylene)hydrazinecarbonyl)piperidine-1-carbonyl)benzenesulfonamide]	4000	209
NS(=O)(=O)c1ccc(C(=O)N2CCC(C(=O)N/N=C/c3ccccc3Cl)CC2)cc1 [compound 23, (E)-4-(4-(2-(2-chlorobenzylidene)hydrazinecarbonyl)piperidine-1-carbonyl)benzenesulfonamide]	482	6.51
COc1cccc(/C=N/NC(=O)C2CCN(C(=O)c3ccc(S(N)(=O)=O)cc3)CC2)c1 [compound 8, (E)-4-(4-(2-(3-methoxybenzylidene)hydrazinecarbonyl)piperidine-1-carbonyl)benzenesulfonamide]	382	44.3
NS(=O)(=O)c1ccc(C(=O)N2CCC(C(=O)N/N=C/c3ccc(F)cc3)CC2)cc1 [compound 20, (E)-4-(4-(2-(4-fluorobenzylidene)hydrazinecarbonyl)piperidine-1-carbonyl)benzenesulfonamide]	340	17.1
COc1cc(OC)c(OC)cc1/C=N/NC(=O)C1CCN(C(=O)c2ccc(S(N)(=O)=O)cc2)CC1 [compound 13, (E)-4-(4-(2-(2,4,5-trimethoxybenzylidene)hydrazinecarbonyl)piperidine-1-carbonyl)benzenesulfonamide]		3.78
COc1cc(/C=N/NC(=O)C2CCN(C(=O)c3ccc(S(N)(=O)=O)cc3)CC2)cc(OC)c1OC [compound 14, (E)-4-(4-(2-(3,4,5-trimethoxybenzylidene)hydrazinecarbonyl)piperidine-1-carbonyl)benzenesulfonamide]	384	67.6
COc1ccc(/C=N/NC(=O)C2CCN(C(=O)c3ccc(S(N)(=O)=O)cc3)CC2)c(OC)c1 [compound 10, (E)-4-(4-(2-(2,4-dimethoxybenzylidene)hydrazinecarbonyl)piperidine-1-carbonyl)benzenesulfonamide]	1890	160
